From patent US8765808B2, “Treatment or prevention of cancer and precancerous disorders” (CHS Pharma, Inc., priority 2005, dated 2014)
“Also recorded” adds a separate entry of the source.

Columns and labels:
[1] = test system: SCC-25 squamous cell skin cancer cell line; test: MTS cell viability after pretreatment and oxidative stress, SCC skin cancer cells; assay type: cell-based, human; settings: 500 μM sulindac 24 hr pretreatment, then TBHP 2 hr (FIG. 1)
Experimental: (§1) SCC-25 is a human squamous cell carcinoma cell line developed by J G Rheinwald [Rheinwald, 1981]. […] The cells were maintained in minimum essential medium (Eagle) supplemented with 2 mM L-glutamine, Earle's BSS containing 1.5 g/L sodium bicarbonate, 0.1 mM non-essential amino acids, 1.0 mM sodium pyruvate and 10% fetal bovine serum.
The experimental approach was to pretreat SCC cells with sulindac for 24 hr prior to exposure to TBHP for 2 hr. Sulindac (Sigma; S-8139) was freshly prepared as a 1M stock solution in 1M Tris.Cl, pH 8.0. SCC cells were suspended in culture medium containing 10% fetal bovine serum at a cell density of 6×10^5 cells/ml. Cell suspensions containing 500 μM sulindac or no sulindac (Control) were plated in 96 well microtiter plates with a total of 6×10^4 cells per well. The plates were incubated for 24 hr at 37° C. in a 5% CO2 incubator. The culture medium was then removed and the cells washed once with fresh culture medium without serum. After removal of the wash solution, fresh culture medium without serum that contained the indicated final concentration of TBHP was added to the cells for 2 hrs. Serum was omitted from the medium during the two-hour exposure to TBHP since TBHP may be rapidly depleted in the presence of serum.

[2] = test system: RKO colon cancer cell line; test: MTS cell viability after pretreatment and oxidative stress, RKO colon cancer cells; assay type: cell-based, human; settings: 500 μM sulindac 24 hr pretreatment, then TBHP 2 hr (FIG. 4)
Experimental: as §1, with “RKO” for “SCC-25”, “colon” for “squamous cell”, “Michael Brattain [Brattain, 1984].” for “J G Rheinwald [Rheinwald, 1981].”
Experiments were performed with the RKO colon cancer cells that were pretreated with 500 μM sulindac using TBHP.

[3] = test system: WM-266-4 Melanoma skin cell line; test: MTS cell viability after pretreatment and oxidative stress, melanoma cells; assay type: cell-based, human; settings: 500 μM sulindac 24 hr pretreatment, then TBHP 2 hr (FIG. 8)
[4] = test system: normal human epidermal keratinocytes; test: Cell viability after sulindac pretreatment and oxidative stress, normal keratinocytes; assay type: cell-based
Experimental: Experiments using similar methods were performed with primary human neonatal foreskin epidermal keratinocytes. These cells were of low-passage and purified using previously accepted protocols (provided by J. Li, University of Miami, Fl.). Cells were grown in 50% Keratinocyte-SFM media [Gibco-Invitrogen (Catalog #17005-042) supplemented with human recombinant Epidermal Growth Factor 1-53 (EGF 1-53) and Bovine Pituitary Extract (BPE)] with 50% EpiLife medium [Cascade Biologics (Catalog #Epi-500-Ca)] supplemented with purified bovine serum albumin, purified bovine transferrin, hydrocortisone, recombinant human insulin-like growth factor type-1 (rhIGF-1), prostaglandin E2 (PGE2), and recombinant human epidermal growth factor (rhEGF).
Normal human epidermal keratinocyte cells were incubated for 24 hr in the presence or absence of 500 μM sulindac. The medium was removed and the cells washed once with fresh medium followed by addition of medium containing the indicated concentration of (a) TBHP or (b) arsenic trioxide. After a 2 hr incubation with TBHP or a 24-hour incubation with arsenic trioxide at 37° C., the cells were assayed for viability as described.

[5] = test system: CCD-18Co normal human colon cell line; test: MTS cell viability after sulindac pretreatment and TBHP, normal colon cells; assay type: cell-based; settings: 500 μM sulindac 24 hr, then TBHP 2 hr (FIG. 11)
Experimental: (§2) The cells were maintained in minimum essential medium (Eagle) supplemented with 2 mM L-glutamine, Earle's BSS containing 1.5 g/L sodium bicarbonate, 0.1 mM non-essential amino acids, 1.0 mM sodium pyruvate and 10% fetal bovine serum.

[6] = test system: MRC-5 normal human lung cell line; test: MTS cell viability after sulindac pretreatment and TBHP, normal lung cells; assay type: cell-based; settings: 500 μM sulindac 24 hr, then TBHP 2 hr (FIG. 12)
Experimental: as §2

[7] = test system: Primary neonatal rat cardiac myocytes; test: Killing by peroxide after sulindac, normal cardiac cells; assay type: cell-based; settings: sulindac followed by peroxide (hydrogen peroxide and TBHP)
Description: (§3) Primary neonatal rat cardiac myocytes and ARPE-19, a human retinal pigment epithelial cell line that is not fully transformed, were used in similar experiments with sulindac followed by peroxide.

[8] = test system: ARPE-19, a human retinal pigment epithelial cell line; test: Killing by peroxide after sulindac, retinal cells; assay type: cell-based; settings: sulindac followed by peroxide (hydrogen peroxide and TBHP)
Description: as §3

normal cells = test: Constant non-toxic TBHP with escalating sulindac (FIG. 16), normal cells; assay type: cell-based; settings: escalating sulindac 500 μM-1500 μM
cancer cells = test: Constant non-toxic TBHP with escalating sulindac (FIG. 16), cancer cells; assay type: cell-based; settings: escalating sulindac 500 μM-1500 μM
Lung cancer cells = test: Intracellular ROS levels, lung cancer cells; assay type: cell-based; settings: combination of sulindac and TBHP vs either treatment alone
Normal lung cells = test: Intracellular ROS levels, normal lung cells; assay type: cell-based; settings: combination of sulindac and TBHP
[9] = Time course of sulindac pre-incubation before addition of the oxidant; assay type: cell-based
Experimental: Sulindac was pre-incubated for various times prior to the addition of the oxidant. […] There was no difference in the results with longer time courses such as 48-72 hours. After the pre-incubation with sulindac, the cells were washed and the oxidant was added with or without sulindac.

[10] = test system: SCC-25 squamous cell skin cancer cell line; test: MTS cell viability after pretreatment and oxidative stress, SCC skin cancer cells; assay type: cell-based, human; settings: sulindac alone, concentrations below 1 mM, MTS assay
[11] = test system: Normal HEK skin cells (human neonatal epidermal keratinocytes); test: Intracellular ROS by indicator dye fluorescence, normal HEK skin cells
Experimental: Experimental conditions: Normal HEK skin cells plated onto 6-well plates at cell density of 60-70% confluence. Sulindac (0.5 mM)×24 hours (cell density remained about the same) followed by TBHP×2 hours followed by ROS indicator dye (5 μM)×1 hour (Table 1).
Human neonatal epidermal keratinocytes were plated into 6-well plates at a cell density of 60-70% confluence. The cultures were pretreated with sulindac (500 uM) for 34 hours followed by the addition of different concentrations of TBHP for 2 hours. During this period of time, the cell density in the 6-well plates remained the same (there was no increase in cell proliferation). This was followed by the addition of the ROS indicator dye.

SCC skin cancer cells = test: Intracellular ROS by indicator dye fluorescence, SCC skin cancer cells
Experimental: SCC skin cancer cells were plated onto 6-well plates at a cell density of 50-60% confluence. The cultures were pretreated with sulindac (500 uM) for 24 hours followed by the addition of TBHP (100 uM) for two hours. During this period of time, the cell density in the 6-well plates increased to 80-90% confluent.

[12] = test system: precancerous growths and/or BCC's; test: Topical sulindac gel followed by hydrogen peroxide solution in patients; settings: applied alone to the skin condition
[13] = test system: lung carcinoma cell line designated A549; test: MTS cell viability after pretreatment and oxidative stress, lung cancer cells
Experimental: Cell viability was determined by the [sequence] 96®-Aqueous One Cell Proliferation Assay (Promega) according to the manufacturer's instructions. The assay utilizes a novel tetrazolium compound (3-(4,5-dimethylthiazol-2-yl)-5-(3-carboxymethoxyphenyl)-2-(4-sulfophenyl)-2H-tetrazolium; MTS) and an electron-coupling reagent (phenazine ethosulfate; PES). Metabolically active cells convert the MTS to a water-soluble formazan by the action of cellular dehydrogenases. The amount of formazan produced is measured by absorbance at 490 nm using a colorimetric microtiter plate reader (BIORAD; Model 2550). Absorbance is directly proportional to the number of viable cells.
Experiments using similar methods were performed with a lung carcinoma cell line designated A549. […] Cells were grown in Ham's F12K medium supplemented with final concentrations of 2 mM L-glutamine, 1.6 g/L sodium bicarbonate and 10% fetal bovine serum. Cultures were maintained between 6×10^3-6×10^4 cells/cm^2 in standard tissue culture flasks. The protocol for pretreatment of cells with 500 μM sulindac followed by a two hour exposure to various concentrations of TBHP was the same as that described for the RKO colon cancer cells.
Following a 24 hr pretreatment with 500 μM sulindac, the cells were washed once to remove the excess sulindac before exposure to TBHP for 2 hr.

CC1=C(CC(=O)O)c2cc(F)ccc2/C1=C\c1ccc([S+](C)[O-])cc1 (racemic) [sulindac, Sulindac]
killing of SCC carcinoma cells by TBHP [1]: enhanced the killing
killing of RKO carcinoma cells by TBHP [2]: enhanced the killing
killing of Melanoma cells by TBHP [3]: enhanced the killing
viability of normal human epidermal keratinocytes, TBHP ([4]; 500 μM sulindac 24 hr, then TBHP 2 hr (FIG. 10A)): no significant effect
viability of normal human epidermal keratinocytes, arsenic trioxide ([4]; 500 μM sulindac 24 hr, then arsenic trioxide 24 hr (FIG. 10B)): no significant effect
TBHP concentrations with protective effect (enhanced resistance to oxidative stress) ([4]; in combination with sulindac, effect lost above 400 μM TBHP): 50 to 400 µM
effect on oxidative stress by TBHP, normal colon cells [5]: provided protection from oxidative stress
effect on oxidative stress by TBHP, normal lung cells [6]: provided protection from oxidative stress
killing of normal cardiac cells by peroxide [7]: no enhanced killing
killing of retinal cells by peroxide [8]: no enhanced killing
effect on normal cells (normal cells): protective effect
effect on cancer cells (cancer cells): enhanced killing
intracellular ROS levels, lung cancer cells (Lung cancer cells): significantly higher levels of ROS
intracellular ROS levels, normal lung cells (Normal lung cells): lower levels of ROS
minimum pre-incubation time with sulindac to see an effect [9]: ≥ 6 h
pre-incubation time with sulindac giving optimum effects [9]: 18 to 24 h
toxicity of sulindac: effect on cell viability [10]: no detectable effect on cell viability
% Cells with ROS Uptake by Fluorescence ([11]; Table 1, Sul alone, 0.5 mM 24 hours): 2%
% Cells containing ROS ([11]; Table 4, Sul 500 uM alone): 2%
level of ROS uptake in normal HEK cells when combined with TBHP ([11]; sulindac combined with TBHP vs sulindac or TBHP alone): no significant effect
% Cells with ROS Uptake by Fluorescence (SCC skin cancer cells; Table 2, Sul 0.5 mM 24 hours and/or TBHP 100 μM 2 hours): 3%
% Cells containing ROS (SCC skin cancer cells; Table 3, Sul 500 μM 24 hours and/or TBHP 100 μM 2 hours): 3%
number of spindle cells in the culture (SCC skin cancer cells; compared to untreated controls): tends to increase the number of spindle cells
ROS uptake in SCC skin cancer cells, sulindac in combination with TBHP (SCC skin cancer cells; sulindac 0.5 mM 24 hours then TBHP 100 μM 2 hours): geometrically enhances the levels of ROS uptake
ROS levels in SCC skin cancer cells, agent alone (SCC skin cancer cells; sulindac 500 uM or TBHP 100 uM alone): enhances the levels of ROS uptake; also recorded: enhanced the ROS levels
effect on the precancerous or cancerous growth when applied alone [12]: no effect
cell viability of lung cancer cells after exposure to TBHP ([13]; 500 μM sulindac 24 hr pretreatment, then TBHP 2 hr (FIG. 6)): marked decrease in cell viability
sensitivity of lung cancer cells to killing by H2O2 ([13]; 500 μM sulindac pretreatment (FIG. 7)): differentially sensitive to killing
viability of cells pretreated with sulindac ([13]; 1.5-2.0 mM TBHP, 2 hr, 500 μM sulindac pretreatment): at background levels
killing effect in all cancer cell studies ([13]; FIG. 15, 500 μM sulindac, 250 μM sulindac sulfone): most potent killing effect
H2O2 range in which difference in viability is highly significant (P<0.001) ([13]; sulindac-treated vs untreated cells): 2.5 to 5.0 mM
